Reference: US20230061858A1, “TREATMENT WITH SITE SPECIFIC HER2 ANTIBODY-DRUG CONJUGATES” (Pfizer Inc., priority 2019, published 2023)
Where a SMILES comes first, the peptide text is derived from it. [ ]: non-standard residue; d: D form. The star is where a group is joined. Dolaproine = CO[C@@H]([C@@H]1CCCN1)[C@@H](C)C(=O)O; Dil = CC[C@H](C)[C@H](NC)[C@@H](CC(=O)O)OC; Doe = c1ccc(C[C@H](N*)c2nccs2)cc1; Aib = CC(C)(N)C(=O)O

Assay: Phase 1 pharmacokinetic assessment, Cycle 1 serum concentrations
Type: in vivo, human
Description: Pharmacokinetic assessments included quantifying the serum concentrations of T(kK183C+K290C)-vc0101 ADC (measured as conjugated payload), total antibody, and unconjugated payload using validated bioanalytical assays on blood samples collected before treatment and during the study. Specifically, total antibody concentrations were measured using ELISA method, T(kK183C+K290C)-vc0101 ADC concentrations were measured as conjugated payload using a hybrid LC-MS/MS method, and unconjugated payload concentrations will be measured using an LC-MS/MS method. For preliminary PK assessment, mean serum concentration-time profiles of T(kK183C+K290C)-vc0101 ADC were generated for each dose cohort; Noncompartmental PK parameters were estimated from Cycle 1 concentration-time data using nominal sampling time. For T(kK183C+K290C)-vc0101 ADC and total antibody, PK parameters including the maximum plasma concentration (Cmax), time to maximum plasma concentration (Tmax), and area under the plasma concentration versus time curve (AUCinf, AUCτ), clearance (CL), volume of distribution at steady state (Vss), terminal half-life (t1/2), and accumulation ratio (Rac) were calculated. For unconjugated payload, PK parameters including Cmax, Tmax, AUCinf, AUCτ, t1/2, and Rac, were calculated.

CC[C@H](C)[C@@H]([C@@H](CC(=O)N1CCC[C@H]1[C@H](OC)[C@@H](C)C(=O)N[C@@H](Cc1ccccc1)c1nccs1)OC)N(C)C(=O)[C@@H](NC(=O)C(C)(C)N)C(C)C [unconjugated payload, 2-methylalanyl-N-[(3R,4S,5S)-3-methoxy-1-{(2S)-2-[(1R,2R)-1-methoxy-2-methyl-3-oxo-3-{[(1S)-2-phenyl-1-(1,3-thiazol-2-yl)ethyl]amino}propyl]pyrrolidin-1-yl}-5-methyl-1-oxoheptan-4-yl]-N-methyl-L-valinamide] (H-[Aib]V[Dil][Dolaproine]-Doe)
exposure following IV administration of PF-06804103 (0.15-5.0 mg/kg, Cycle 1): Dose-dependent increases | Serum concentrations compared with ADC (Cycle 1, after IV PF-06804103): substantially lower than those of ADC
